Results: PubChem BioAssay AID256 (DTP/NCI, 2004)
Several values for one entry are separate records, joined by “and”; a condition that tells them apart may be missing. Equal entries are not always repeated. Toxic doses and inconclusive results are not listed. The calls were made as follows: active = survival T/C of 150% or more; inactive = T/C below 125% in these data.

Test system: CD2F1 mice, L1210 leukemia ip, survival T/C
Assay: NCI In Vivo Anticancer Drug Screen. Data for tumor model L1210 Leukemia (intraperitoneal) in CD2F1 (CDF1) mice
Details: higher = longer survival
How it was run: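 Implant tumor; dose compound or vehicle; measure endpoint in both groups; report treated divided by control.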

[1] = endpoint: mean survival time, dose: 100.0 mg/kg/injection, schedule: Q01DX009 (ip), vehicle: saline with Tween-80
[2] = endpoint: mean survival time, dose: 200.0 mg/kg/injection, schedule: Q01DX009 (ip), vehicle: saline with Tween-80
[3] = endpoint: mean survival time, dose: 400.0 mg/kg/injection, schedule: Q01DX009 (ip), vehicle: saline with Tween-80
[4] = endpoint: mean survival time, dose: 100.0 mg/kg/injection, schedule: Q04DX003 (ip), vehicle: saline with Tween-80
[5] = endpoint: mean survival time, dose: 200.0 mg/kg/injection, schedule: Q04DX003 (ip), vehicle: saline with Tween-80
[6] = endpoint: mean survival time, dose: 400.0 mg/kg/injection, schedule: Q04DX003 (ip), vehicle: saline with Tween-80

Measured: T/C

NC(=O)CCC(NC(=O)c1cnc2ccccc2n1)C(=O)O (centres undefined)
inactive: endpoint: mean survival time, dose: 100.0 mg/kg/injection, schedule: Q01DX001 (ip), vehicle: saline 97 % of control | endpoint: mean survival time, dose: 100.0 mg/kg/injection, schedule: Q04DX003 (ip), vehicle: saline 105 % of control | endpoint: mean survival time, dose: 200.0 mg/kg/injection, schedule: Q01DX001 (ip), vehicle: saline 97 % of control | endpoint: mean survival time, dose: 200.0 mg/kg/injection, schedule: Q04DX003 (ip), vehicle: saline 100 % of control | endpoint: mean survival time, dose: 400.0 mg/kg/injection, schedule: Q01DX001 (ip), vehicle: saline 95 % of control | endpoint: mean survival time, dose: 400.0 mg/kg/injection, schedule: Q04DX003 (ip), vehicle: saline 102 % of control

C=CCN(CC=C)CCSC(=S)NCCOC
inactive: endpoint: mean survival time, dose: 50.0 mg/kg/injection, schedule: Q01DX009 (ip), vehicle: saline with Tween-80 97 % of control | [1] 113 % of control | [2] 97 % of control

N=P(N[P+](N)(c1ccccc1)c1ccccc1)(c1ccccc1)c1ccccc1
inactive: endpoint: mean survival time, dose: 1.56 mg/kg/injection, schedule: Q01DX009 (ip), vehicle: Klucel (hydroxypropylcellulose) (HPC) 103 % of control | endpoint: mean survival time, dose: 3.12 mg/kg/injection, schedule: Q01DX009 (ip), vehicle: Klucel (hydroxypropylcellulose) (HPC) 103 % of control | endpoint: mean survival time, dose: 6.25 mg/kg/injection, schedule: Q01DX009 (ip), vehicle: Klucel (hydroxypropylcellulose) (HPC) 91 % of control and 103 % of control

C#CCOC(=O)NCCC
inactive: endpoint: mean survival time, dose: 100.0 mg/kg/injection, schedule: Q04DX003 (ip), vehicle: Klucel (hydroxypropylcellulose) (HPC) 96 % of control | endpoint: mean survival time, dose: 200.0 mg/kg/injection, schedule: Q04DX003 (ip), vehicle: Klucel (hydroxypropylcellulose) (HPC) 100 % of control

C=C(Cl)CSCCO
inactive: [1] 100 % of control | [2] 104 % of control | [3] 98 % of control

CC(C)C1CC2CCC3C(C)(C(=O)O)CCCC3(C)C2CC1CO (centres undefined)
inactive: [1] 87 % of control | [2] 91 % of control | [3] 86 % of control

O=C(O)c1ccccc1C(=O)NCc1ccccn1
inactive: endpoint: mean survival time, dose: 50.0 mg/kg/injection, schedule: Q01DX009 (ip), vehicle: Klucel (hydroxypropylcellulose) (HPC) 90 % of control | endpoint: mean survival time, dose: 100.0 mg/kg/injection, schedule: Q01DX009 (ip), vehicle: Klucel (hydroxypropylcellulose) (HPC) 97 % of control | endpoint: mean survival time, dose: 200.0 mg/kg/injection, schedule: Q01DX009 (ip), vehicle: Klucel (hydroxypropylcellulose) (HPC) 101 % of control

COC(=O)C1=C(O)C(C(=O)OC)C2/C(=[N+](/[O-])O)c3c(cc([N+](=O)[O-])cc3[N+](=O)[O-])C1C2[N+](=O)[O-] (centres undefined)
inactive: endpoint: mean survival time, dose: 100.0 mg/kg/injection, schedule: Q04DX002 (ip), vehicle: saline with Tween-80 94 % of control | endpoint: mean survival time, dose: 200.0 mg/kg/injection, schedule: Q04DX002 (ip), vehicle: saline with Tween-80 105 % of control | endpoint: mean survival time, dose: 400.0 mg/kg/injection, schedule: Q04DX002 (ip), vehicle: saline with Tween-80 90 % of control

CCOC(=O)c1ccc(OC(=O)Nc2ccccc2OC)cc1
inactive: [1] 96 % of control | [4] 103 % of control | [2] 92 % of control | [5] 100 % of control | [3] 94 % of control | [6] 102 % of control

O=C(CC(=O)C(F)(F)C(F)(F)C(F)(F)F)C(F)(F)F.O=C(CC(=O)C(F)(F)C(F)(F)C(F)(F)F)C(F)(F)F.O=C(CC(=O)C(F)(F)C(F)(F)C(F)(F)F)C(F)(F)F.O=C(CC(=O)C(F)(F)C(F)(F)C(F)(F)F)C(F)(F)F.[Yb]
inactive: endpoint: median survival time, dose: 50.0 mg/kg/injection, schedule: Q04DX002 (ip), vehicle: saline with Tween-80 100 % of control | endpoint: median survival time, dose: 100.0 mg/kg/injection, schedule: Q04DX002 (ip), vehicle: saline with Tween-80 100 % of control | endpoint: median survival time, dose: 200.0 mg/kg/injection, schedule: Q04DX002 (ip), vehicle: saline with Tween-80 100 % of control | endpoint: median survival time, dose: 400.0 mg/kg/injection, schedule: Q04DX002 (ip), vehicle: saline with Tween-80 100 % of control

N#Cc1ccc(NCCO)cc1
inactive: [4] 89 % of control | [5] 101 % of control | [6] 91 % of control

N#CSCN1C(=O)C2CC=CCC2C1=O (centres undefined)
inactive: endpoint: mean survival time, dose: 6.25 mg/kg/injection, schedule: Q04DX003 (ip), vehicle: saline with Tween-80 103 % of control | endpoint: mean survival time, dose: 12.5 mg/kg/injection, schedule: Q04DX003 (ip), vehicle: saline with Tween-80 101 % of control

CC(O)(C(=O)O)c1ccccc1 (centres undefined)
inactive: endpoint: mean survival time, dose: 75.0 mg/kg/injection, schedule: Q01DX001 (ip), vehicle: saline 102 % of control | endpoint: mean survival time, dose: 150.0 mg/kg/injection, schedule: Q01DX001 (ip), vehicle: saline 112 % of control | endpoint: mean survival time, dose: 300.0 mg/kg/injection, schedule: Q01DX001 (ip), vehicle: saline 100 % of control
